Reference: patent publication US20030092753A1, “Methods for the treatment and prevention of neurodegenerative conditions” (Wyeth, priority 1999, published 2003)

System: rat hippocampal slices
Experiment: Reduction of azide-induced ischemic efflux of glutamate in rat hippocampal slices
Type: cell-based
Settings: AUC vs control, statistically significant
Experimental: Adatanserin was evaluated for its ability to reduce the azide-induced ischemic efflux of glutamate in rat hippocampal slices. Three Krebs buffers were used in the experiments. Normal Krebs buffer consisted of a solution containing the following: (122 mM NaCl, 3 mM KCl, 24 mM NaHCO3, 10 mM glucose, 0.315 mM K2HPO4, 1.2 mM MgSO4, 4 mM CaCl2). Aglycemic Krebs buffer was similar to the normal buffer with the exception that glucose was not added. Ischemic Krebs buffer was the aglycemic solution which contained varying concentrations of sodium azide (0-30 mM).
Rat hippocampi were dissected on a cold platform and suspended in ice cold oxygenated normal Krebs buffer. The tissue was cross-chopped at 350 microns on a McIlwain tissue chopper, then resuspended and washed three times with ice cold normal Krebs buffer. […] Amino acid concentrations were analyzed with reverse phase HPLC on a catacholarine column (Keystone Scinetific, 150×3 mm) employing an 0.05 M acetate/methanol gradient. […] Amino acids were visualized by derivatization with naphthalene-2,3-dicarboxaldehyde and fluorimetric detection (Dawson, L. A. et al., Improved Temporal Resolution of Microdialysis Measurement of Glutamate and Aspartate Using Capillary Electrophoresis with Laser Induced Fluorescence Detection. J. Chromatogr. B 1997, 694, 1204-1212). […]

Q: Which results are given for `O=C(NCCN1CCN(c2ncccn2)CC1)C12CC3CC(CC(C3)C1)C2` [adatanserin, N-[2-[4-(2-pyrimidinyl)-1-piperazinyl]ethyl]tricyclo[3.3.1.13.7]decane-1-carboxamide]?
A: reduction of glutamate release (azide-induced ischemic efflux) (adatanserin 100 nM): 72%; reduction of glutamate release (azide-induced ischemic efflux) (adatanserin 1000 nM (1 μM)): 71%
